Measured values from patent US11584742B2 (MASARYKOVA UNIVERZITA, priority 2018, dated 2023).
pIC50: −log10 of the molar value.

Experiments:
MRE11 = target: T1, MRE11 (Homo sapiens, UniProt P49959); assay: HTS nuclease assay (cleavage of CY5/BBQ-quenched 5' overhang DNA substrate); assay type: biochemical; conditions: in vitro HTS nuclease assay; 18 nM MRE11, 40 nM DNA substrate; analysis at t=4 h
T1 sequence (P49959 1-708): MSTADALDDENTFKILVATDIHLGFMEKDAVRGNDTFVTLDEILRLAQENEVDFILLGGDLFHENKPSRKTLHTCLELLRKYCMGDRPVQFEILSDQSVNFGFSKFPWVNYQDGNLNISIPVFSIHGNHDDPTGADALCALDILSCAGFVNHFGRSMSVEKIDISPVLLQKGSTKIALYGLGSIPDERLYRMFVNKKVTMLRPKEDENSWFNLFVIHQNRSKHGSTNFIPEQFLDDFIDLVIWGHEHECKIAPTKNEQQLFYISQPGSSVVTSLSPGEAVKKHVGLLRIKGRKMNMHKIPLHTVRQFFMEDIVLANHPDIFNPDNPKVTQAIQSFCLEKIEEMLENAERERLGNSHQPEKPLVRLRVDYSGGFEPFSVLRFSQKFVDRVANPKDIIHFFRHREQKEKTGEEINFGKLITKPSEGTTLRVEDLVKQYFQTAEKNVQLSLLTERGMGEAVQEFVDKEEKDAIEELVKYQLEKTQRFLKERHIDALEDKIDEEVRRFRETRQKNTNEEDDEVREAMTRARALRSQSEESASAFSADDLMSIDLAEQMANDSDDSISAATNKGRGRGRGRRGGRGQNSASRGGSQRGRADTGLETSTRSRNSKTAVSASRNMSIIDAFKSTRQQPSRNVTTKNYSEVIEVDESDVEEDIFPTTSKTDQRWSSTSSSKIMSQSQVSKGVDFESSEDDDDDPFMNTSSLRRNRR

DR-GFP U2OS cells = assay: HR assay (GFP fluorescence after I-SceI transfection, flow cytometry); assay type: cell-based; conditions: Homo sapiens, inhibitor at 25 μM, 72 hours after transfection
Protocol: DR-GFP U2OS cells (Methods in Molecular Biology 2012, 920, 379.) were transfected with 2.5 μg of I-SceI-expressing pCAGGS vector and treated with the inhibitors at 25 μM concentration. 72 hours after the transfection, the cells were trypsinized and resuspended in 3% BSA in PBS. GFP fluorescence detection was carried out using a BD FACSVerse flow cytometer and data analyzed with FlowJo software.

[1] = test system: Phosphorylated RPA32 S4/S8 in U2OS cells; assay: RPA assay (RPA phosphorylation after camptothecin); assay type: cell-based; conditions: Homo sapiens, U2OS cells pre-treated 1 h, then 1 uM camptothecin 1 h; for inhibition at 10 µM: inhibitor at 10 μM
Protocol: U2OS cells were pre-treated for 1 h with MRE11 inhibitors followed by addition of 1 uM camptothecin for 1 h. Cells were lysed in SDS-PAGE loading buffer, sonicated and boiled at 70° C. for 10 min. Equal amounts of protein (50-100 μg) were analysed by Tris-glycine gel electrophoresis Expression levels were quantified using Multi Gauge software and expressed relative to loading control. Phosphorylated RPA32 S4/S8 (A300-245A, Bethyl Laboratories) 1:1000 dilution was used.

Row | Structure (SMILES) | pIC50 (MRE11) | inhibition at 25 µM (DR-GFP U2OS cells) | inhibition at 25 µM ([1]; inhibitor at 25 μM) | inhibition at 10 µM [1]
1 | N#C/C(=C\c1cc(F)c(O)c(F)c1)C(=O)Nc1nc(-c2ccccc2)cs1 [Preparative Example 212, (E)-2-cyano-3-(3,5-difluoro-4-hydroxyphenyl)-N-(4-phenylthiazol-2-yl)acrylamide] | 4.05 to 5.00 | < 50% |  | 
2 | N#C/C(=C\c1ccc(F)c(F)c1)C(=O)Nc1nc(-c2ccccc2)cs1 [Preparative Example 213, (E)-2-cyano-3-(3,4-difluorophenyl)-N-(4-phenylthiazol-2-yl)acrylamide] | 4.05 to 5.00 | < 50% |  | 
3 | N#C/C(=C\c1ccc2[nH]c(=O)[nH]c2c1)C(=O)Nc1nc(-c2ccccc2)cs1 [Preparative Example 216, (E)-2-cyano-3-(2-oxo-2,3-dihydro-1H-benzo[d]imidazol-5-yl)-N-(4-phenylthiazol-2-yl)acrylamide] | 4.05 to 5.00 | < 50% |  | 
4 | N#C/C(=C\c1ccc(O)c(O)c1)C(=O)Nc1nc(-c2ccc(Br)s2)cs1 [Preparative Example 219, (E)-N-(4-(5-bromothiophen-2-yl)thiazol-2-yl)-2-cyano-3-(3,4-dihydroxyphenyl) acrylamide] | > 5.70 | > 75% |  | 
5 | N#C/C(=C\c1ccc(O)cc1F)C(=O)Nc1nc(-c2ccccc2)cs1 [Preparative Example 226, (E)-2-cyano-3-(2-fluoro-4-hydroxyphenyl)-N-(4-phenylthiazol-2-yl)acrylamide] | 4.05 to 5.00 | > 75% |  | 
6 | Cc1ccc(-c2csc(NC(=O)/C(C#N)=C/c3ccc(O)c(O)c3)n2)cn1 [Preparative Example 232, (E)-2-cyano-3-(3,4-dihydroxyphenyl)-N-(4-(6-methylpyridin-3-yl)thiazol-2-yl)acrylamide] | > 5.70 | < 50% |  | 
7 | N#C/C(=C\c1ccc(O)c(O)c1)C(=O)Nc1nc(-c2ccccc2)c(-c2cnccn2)s1 [Preparative Example 238, (E)-2-cyano-3-(3,4-dihydroxyphenyl)-N-(4-phenyl-5-(pyrazin-2-yl)thiazol-2-yl)acrylamide] | > 5.70 | 50 to 75% |  | 
8 | Cc1cccnc1-c1csc(NC(=O)/C(C#N)=C/c2ccc(O)c(O)c2)n1 [Preparative Example 239, (E)-2-cyano-3-(3,4-dihydroxyphenyl)-N-(4-(3-methylpyridin-2-yl)thiazol-2-yl)acrylamide] | > 5.70 | > 75% |  | 
9 | COc1ccc(-c2csc(NC(=O)/C(C#N)=C/c3ccc(O)c(O)c3)n2)cn1 [Preparative Example 241, (E)-2-cyano-3-(3,4-dihydroxyphenyl)-N-(4-(6-methoxypyridin-3-yl)thiazol-2-yl)acrylamide] | > 5.70 | < 50% | 75% | 
10 | COc1cccnc1-c1csc(NC(=O)/C(C#N)=C/c2ccc(O)c(O)c2)n1 [Preparative Example 242, (E)-2-cyano-3-(3,4-dihydroxyphenyl)-N-(4-(3-methoxypyridin-2-yl)thiazol-2-yl)acrylamide] | > 5.70 | > 75% |  | 95%
11 | CC(C)(C)c1cccc(-c2csc(NC(=O)/C(C#N)=C/c3ccc(O)c(O)c3)n2)c1 [Preparative Example 247, (E)-N-(4-(3-(tert-butyl)phenyl)thiazol-2-yl)-2-cyano-3-(3,4-dihydroxyphenyl)acrylamide] | 5.00 to 5.70 | 50 to 75% |  | 

More lines, main results first:

Row | pIC50 (MRE11) | Structure (SMILES) | inhibition at 25 µM (DR-GFP U2OS cells) | inhibition at 25 µM ([1]; inhibitor at 25 μM) | inhibition at 10 µM [1]
12 | 4.05 to 5.00 | N#C/C(=C\c1ccc([N+](=O)[O-])cc1)C(=O)Nc1nc(-c2ccccc2)cs1 [Preparative Example 209, (E)-2-cyano-3-(4-nitrophenyl)-N-(4-phenylthiazol-2-yl)acrylamide] | 50 to 75% |  | 
13 | 4.05 to 5.00 | N#C/C(=C\c1cccc(C(=O)O)c1)C(=O)Nc1nc(-c2ccccc2)cs1 [Preparative Example 210, (E)-3-(2-cyano-3-oxo-3-((4-phenylthiazol-2-yl)amino)prop-1-en-1-yl)benzoic acid] | < 50% |  | 
14 | 4.05 to 5.00 | N#C/C(=C\c1ccc(O)c(-c2ccccc2)c1)C(=O)Nc1nc(-c2ccccc2)cs1 [Preparative Example 211, (E)-2-cyano-3-(6-hydroxy-[1,1′-biphenyl]-3-yl)-N-(4-phenylthiazol-2-yl)acrylamide] | < 50% |  | 
15 | 4.05 to 5.00 | N#C/C(=C\c1ccc2c(c1)OCC(=O)N2)C(=O)Nc1nc(-c2ccccc2)cs1 [Preparative Example 220, (E)-2-cyano-3-(3-oxo-3,4-dihydro-2H-benzo[b][1,4]oxazin-7-yl)-N-(4-phenylthiazol-2-yl)acrylamide] | 50 to 75% |  | 
16 | 4.05 to 5.00 | CC(=O)Nc1ccc(/C=C(\C#N)C(=O)Nc2nc(-c3ccccc3)cs2)cc1O [Preparative Example 223, (E)-3-(4-acetamido-3-hydroxyphenyl)-2-cyano-N-(4-phenylthiazol-2-yl)acrylamide] | < 50% |  | 
17 | 4.05 to 5.00 | Cc1cc(O)ccc1/C=C(\C#N)C(=O)Nc1nc(-c2ccccc2)cs1 [Preparative Example 225, (E)-2-cyano-3-(4-hydroxy-2-methylphenyl)-N-(4-phenylthiazol-2-yl)acrylamide] | < 50% |  | 
18 | 5.00 to 5.70 | N#C/C(=C\c1ccc(O)c2ccccc12)C(=O)Nc1nc(-c2ccccc2)cs1 [Preparative Example 227, (E)-2-cyano-3-(4-hydroxynaphthalen-1-yl)-N-(4-phenylthiazol-2-yl)acrylamide] | > 75% |  | 
19 | > 5.70 | Cc1ccc(-c2csc(NC(=O)/C(C#N)=C/c3ccc(O)c(O)c3)n2)s1 [Preparative Example 229, (E)-2-cyano-3-(3,4-dihydroxyphenyl)-N-(4-(5-methylthiophen-2-yl)thiazol-2-yl)acrylamide] | 50 to 75% |  | 
20 | 5.00 to 5.70 | N#C/C(=C\c1cccc(C(F)(F)F)c1)C(=O)Nc1nc(-c2ccccc2)cs1 [Preparative Example 231, (E)-2-cyano-N-(4-phenylthiazol-2-yl)-3-(3-(trifluoromethyl)phenyl)acrylamide] | < 50% |  | 
21 | > 5.70 | N#C/C(=C\c1ccc(O)c(O)c1)C(=O)Nc1nc(-c2cccc(F)c2)cs1 [Preparative Example 236, (E)-2-cyano-3-(3,4-dihydroxyphenyl)-N-(4-(3-fluorophenyl)thiazol-2-yl)acrylamide] | 50 to 75% |  | 
22 | > 5.70 | N#C/C(=C\c1cc(Cl)c(O)c(Cl)c1)C(=O)Nc1nc(-c2ccccn2)cs1 [Preparative Example 243, (E)-2-cyano-3-(3,5-dichloro-4-hydroxyphenyl)-N-(4-(pyridin-2-yl)thiazol-2-yl)acrylamide] | 50 to 75% |  | 100%
23 | > 5.70 | Cc1cc(C(C)(C)C)cc(C)c1-c1csc(NC(=O)/C(C#N)=C/c2ccc(O)c(O)c2)n1 [Preparative Example 246, (E)-N-(4-(4-(tert-butyl)-2,6-dimethylphenyl)thiazol-2-yl)-2-cyano-3-(3,4-dihydroxyphenyl)acrylamide] | > 75% |  | 
